The subject of one test is MRSA 1123. As to the kind of experiment: MIC against clinically relevant strains. The class given is cell-based. The settings on record: Staphylococcus aureus, methicillin resistant S. aureus strain. How it is done: (§1) The following methods were used to characterize representative compounds. Minimal Inhibitory Concentration (MIC) determinations. MIC values were determined in 96 well plates, with bacterial growth monitored at OD 600 nm in 200µl following an initial bacterial seeding at approximately 1x10^5 colony forming units (CFU)/ml. Each drug is evaluated at five concentrations, with five data points at each dilution. MIC values (µg/ml) were determined against actively growing cultures in Heart-Brain Infusion (HBI) medium. Cell growth in cultures supplemented with a test compound was calculated as a percent of control at OD 600 nm after 16 to 18 hours at 37°C. This plate format conserves test compound and provides precise, quantitative data with low standard deviation determinations. Polymerase IIIC (Pol IIIC) assay. DNA polymerase activity (or inhibition thereof) was measured in a 96-well plate format. B. subtilis Pol IIIC was isolated as described by Hammond and Brown (Protein Expr. Purif., 3: 65-70 (1992)). Each 25 µl assay contained 30 mM Tris, pH 7.5, 10 mM magnesium acetate, 4 mM dithiothreitol, 20% glycerol, with 25 µM dATP, dCTP, dGTP and 10 µM dTTP (^3H-labelled at 1.44 Ci/mmole) and 0.4 mg/ml activated calf thymus DNA as substrates, as described previously (see Barnes et al, op. cit). Assays were initiated by the addition of 0.025 to 0.06 units of enzyme 1 unit is the amount required to incorporate 250 pmoles of [^3H] dTMP in a standard assay), incubated for 10 minutes at 30°C and terminated by the addition of 200 µl of cold 10% trichloroacetic acid (TCA),10 mM sodium pyrophosphate. Precipitated labeled DNA was collected on glass fiber filter plates, washed, dried, and counted in a liquid scintillation counter. Determination of Ki values. DNA polymerase activity was measured in a 96-well plate format in the absence of dGTP or dATP, depending on the structure of the test compound. Each 25 µl assay contained 30 mM Tris, pH 7.5, 10 mM magnesium acetate, 4 mM dithiothreitol, 20% glycerol, with 25 µM dATP, dCTP, and 10 µM dTTP (^3H-labelled at 1.44 Ci/mmole) and 0.4 mg/ml activated calf thymus DNA as substrates, as described previously. To each well were added 2 µl of compound solution to give final concentrations ranging from 20 - 0.027 µg/ml in the assay. Assays were initiated by the addition of 0.025 to 0.06 units of enzyme (1 unit is the amount required to incorporate 250 pmoles of [^3H] dTMP in a standard assay), incubated for 10 minutes at 30 °C and terminated by the addition of 200 µl of cold 10% trichloroacetic acid, 10 mM sodium pyrophosphate. Precipitated labeled DNA was collected on glass fiber filter plates, washed, dried, and counted in a liquid scintillation counter. Ki is the concentration of test compound that reduces the control polymerase IIIC activity by 50 percent.
(§2) Compounds were also tested for antibacterial activity against certain clinically relevant strains, e.g., methicillin sensitive (MSSA) and methicillin resistant (MRSA) strains of Staphylococcus aureus.

For a further test, the system named is MRSA1132. Description: MIC against clinically relevant strains. The class given is cell-based. To be noted: Staphylococcus aureus; methicillin resistant S. aureus strain. How it is done:
as §1, §2

A further test concerns MRSA1094. Description: MIC against clinically relevant strains. The class given is cell-based. To be noted: Staphylococcus aureus; methicillin resistant S. aureus strain. How it is done:
as §1, §2

For the next test, the target named is T1, B. subtilis Pol IIIC (Bacillus subtilis, UniProt P13267).
T1 construct: made in house
Description: Polymerase IIIC (Pol IIIC) assay, determination of Ki values. The test is classed as biochemical. The settings on record: Ki (µM) Pol IIIC, assay in absence of dGTP or dATP; Ki is the concentration that reduces control polymerase IIIC activity by 50 percent. Put shortly:
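Isolated B. subtilis Pol IIIC (0.025–0.06 units) run 10 min at 30°C in 30 mM Tris pH 7.5, 10 mM Mg acetate, 4 mM DTT, 20% glycerol. Substrates were 0.4 mg/ml activated calf thymus DNA, 25 µM dNTPs and 10 µM [3H]dTTP, with dGTP or dATP omitted per compound structure.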

This note sets out measurements from patent EP1401829B1, “NOVEL HETEROCYCLIC ANTIBACTERIAL COMPOUNDS” (Microbiotix, Inc., priority 2001, dated 2002).

Values after ≈ are worked out from the molar mass of the structure shown.

T1 sequence (P13267 whole entry): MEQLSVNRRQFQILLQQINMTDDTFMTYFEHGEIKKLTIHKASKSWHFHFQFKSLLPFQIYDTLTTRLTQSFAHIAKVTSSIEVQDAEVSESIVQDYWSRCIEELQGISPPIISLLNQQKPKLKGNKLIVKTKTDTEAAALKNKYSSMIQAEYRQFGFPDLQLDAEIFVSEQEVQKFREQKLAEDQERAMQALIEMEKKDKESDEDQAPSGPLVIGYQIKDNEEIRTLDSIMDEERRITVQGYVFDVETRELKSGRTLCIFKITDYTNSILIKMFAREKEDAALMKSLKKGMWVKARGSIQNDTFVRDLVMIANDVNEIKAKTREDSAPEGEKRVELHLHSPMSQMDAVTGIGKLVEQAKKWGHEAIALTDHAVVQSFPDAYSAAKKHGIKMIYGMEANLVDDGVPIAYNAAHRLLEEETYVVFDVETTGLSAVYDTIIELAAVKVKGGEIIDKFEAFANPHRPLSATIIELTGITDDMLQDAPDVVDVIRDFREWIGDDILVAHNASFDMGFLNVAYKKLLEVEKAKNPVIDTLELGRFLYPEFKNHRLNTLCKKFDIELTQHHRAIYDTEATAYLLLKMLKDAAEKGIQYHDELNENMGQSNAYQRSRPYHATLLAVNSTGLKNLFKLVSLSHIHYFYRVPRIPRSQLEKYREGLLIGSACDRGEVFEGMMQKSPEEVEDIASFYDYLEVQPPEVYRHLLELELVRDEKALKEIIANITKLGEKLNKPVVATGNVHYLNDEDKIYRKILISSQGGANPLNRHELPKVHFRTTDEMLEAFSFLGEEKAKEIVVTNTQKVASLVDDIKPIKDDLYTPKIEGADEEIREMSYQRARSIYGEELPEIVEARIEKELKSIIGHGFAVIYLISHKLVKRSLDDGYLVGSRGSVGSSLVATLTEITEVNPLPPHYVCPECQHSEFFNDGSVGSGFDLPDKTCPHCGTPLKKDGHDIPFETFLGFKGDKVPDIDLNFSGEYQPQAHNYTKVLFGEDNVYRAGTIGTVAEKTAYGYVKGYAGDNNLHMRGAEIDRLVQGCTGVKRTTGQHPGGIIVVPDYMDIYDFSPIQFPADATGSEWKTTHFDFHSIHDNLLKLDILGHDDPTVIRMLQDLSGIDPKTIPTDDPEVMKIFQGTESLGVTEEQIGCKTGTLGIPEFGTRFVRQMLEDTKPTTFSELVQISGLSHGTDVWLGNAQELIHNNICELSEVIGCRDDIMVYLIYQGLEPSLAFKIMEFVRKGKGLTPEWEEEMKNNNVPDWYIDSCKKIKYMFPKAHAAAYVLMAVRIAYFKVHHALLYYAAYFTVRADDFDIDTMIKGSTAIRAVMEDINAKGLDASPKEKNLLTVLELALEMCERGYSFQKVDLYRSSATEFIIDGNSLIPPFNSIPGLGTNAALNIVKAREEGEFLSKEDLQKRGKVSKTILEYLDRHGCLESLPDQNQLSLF

Take `CCc1cc(Nc2cc(=O)n(CCCCN3CCN(c4cc5c(cc4F)c(=O)c(C(=O)O)cn5C4CC4)CC3)c(=O)[nH]2)ccc1C` [Compound 2, 3-{4-[1-(1-cyclopropyl-3-carboxy-4-oxo-6-fluoro-7-quinolyl)-4-piperazinyl]butyl}-6-(3-ethyl-4-methylanilino)uracil]: the MIC in the test on MRSA 1123, against MRSA1132 and against MRSA1094 was 0.625 mg/L (≈ 0.991 µM) each time. Also, at B. subtilis Pol IIIC, the Ki (usually a dissociation constant, usually derived from enzyme kinetics or from competition with a known ligand) is 0.024 µM.

`CCc1cc(Nc2cc(=O)n(CCCCN3CCN(c4cc5c(cc4F)c(=O)c(C(=O)O)cn5C4CC4)CC3)c(=O)[nH]2)ccc1C.CS(=O)(=O)O` [Compound 10, 3-{4-[1-(1-cyclopropyl-3-carboxy-4-oxo-6-fluoro-7-quinolyl)-4-piperazinyl]butyl}-6-(3-ethyl-4-methylanilino)uracil methanesulfonate]: the MIC (commonly the lowest concentration found to suppress growth) with MRSA 1123 was 1.25 mg/L; against MRSA1132 it was 0.625 mg/L; against MRSA1094, 1.25 mg/L. This molecule also gave an inhibition constant Ki at B. subtilis Pol IIIC of 0.018 µM.

Turning to `CCc1cc(Nc2cc(=O)n(CCCCN3CCN(c4c(F)cc5c(=O)c(C(=O)O)cn(C6CC6)c5c4F)CC3C)c(=O)[nH]2)ccc1C` (stereo not drawn) [Compound 70, 3-{4-[1-(1-cyclopropyl-3-carboxy-4-oxo-6,8-difluoro-7-quinolyl)-3-methyl-4-piperazinyl]butyl}-6-(3-ethyl-4-methylanilino)uracil], the MIC in the test with MRSA 1123 was 0.94 mg/L (≈ 1.42 µM); in the test with MRSA1132 it was 0.31 mg/L (≈ 0.468 µM); with MRSA1094, 0.94 mg/L (≈ 1.42 µM). Also, the affinity on B. subtilis Pol IIIC corresponds to a Ki of 0.019 µM.
